Measurements from ChEMBL document CHEMBL1201862, “PubChem BioAssay data set” (2004).
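Growth conditions: 96-well plates. Treatment: test compound, 48 hours, 5 concentrations. Analysis: linear interpolation between bracketing concentrations; unreached endpoints set to highest concentration. GI50 = concentration required for 50% inhibition of growth.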 Active and inactive are the calls of the source. Rule as the data show it: active = GI50 up to about 1.1 µM and inactive = higher.

Experiments:
Experiment in all cases: DTP human tumour cell line panel, 48 h
ACHN = tested on: ACHN
BT-549 = tested on: BT-549
CAKI-1 = tested on: CAKI-1
COLO 205 = tested on: COLO 205
DU-145 = tested on: DU-145
EKVX = tested on: EKVX
MDA-MB-231 = tested on: MDA-MB-231
MOLT-4 = tested on: MOLT-4
NCI-H522 = tested on: NCI-H522
NCI/ADR-RES = tested on: NCI/ADR-RES
OVCAR-3 = tested on: OVCAR-3
PC-3 = tested on: PC-3
SK-MEL-5 = tested on: SK-MEL-5
SN12C = tested on: SN12C
SW-620 = tested on: SW-620
UACC-257 = tested on: UACC-257
HCC 2998 = tested on: HCC 2998
HT-29 = tested on: HT-29
NCI-H226 = tested on: NCI-H226

Measured: GI50

S=c1[nH]nc(COc2ccc3c(c2)CCCC3)n1/N=C/c1ccc(Cl)cc1
inactive: ACHN 20.1 µM | BT-549 17 µM | CAKI-1 18.6 µM | COLO 205 16.6 µM | DU-145 15.5 µM | EKVX 19.1 µM | MDA-MB-231 24.1 µM | MOLT-4 19.4 µM | NCI-H522 14.1 µM | NCI/ADR-RES 17.6 µM | OVCAR-3 16 µM | PC-3 14.9 µM | SK-MEL-5 15.7 µM | SN12C 22.8 µM | SW-620 17.4 µM | UACC-257 22.6 µM

CCP(=O)(CC)C(Cl)(Cl)C(=O)NC
inactive: ACHN > 100 µM | CAKI-1 > 100 µM | COLO 205 > 100 µM | DU-145 > 100 µM | HCC 2998 > 100 µM | HT-29 > 100 µM | MDA-MB-231 > 100 µM | MOLT-4 > 100 µM | NCI-H226 > 100 µM | NCI-H522 > 100 µM | NCI/ADR-RES > 100 µM | OVCAR-3 > 100 µM | PC-3 > 100 µM | SK-MEL-5 > 100 µM | SN12C > 100 µM | SW-620 > 100 µM | UACC-257 > 100 µM

CCCCN(CCCC)C1=Nc2ccccc2-n2c(nnc2C(=O)OCC)C1
inactive: ACHN 38.3 µM | CAKI-1 49.9 µM | COLO 205 18.5 µM | DU-145 75.3 µM | EKVX 71.9 µM | HCC 2998 38.8 µM | HT-29 22 µM | MDA-MB-231 38.1 µM | MOLT-4 27 µM | NCI-H226 50.6 µM | NCI-H522 > 100 µM | NCI/ADR-RES 39.2 µM | OVCAR-3 37.2 µM | PC-3 17.4 µM | SK-MEL-5 15.1 µM | SN12C 51.1 µM | SW-620 58.3 µM | UACC-257 17.4 µM

CN(C)S(=O)(=O)n1cnc(CO)c1
inactive: ACHN > 100 µM | BT-549 > 100 µM | CAKI-1 > 100 µM | COLO 205 > 100 µM | EKVX > 100 µM | HCC 2998 > 100 µM | MDA-MB-231 > 100 µM | MOLT-4 > 100 µM | NCI-H226 > 100 µM | NCI-H522 > 100 µM | NCI/ADR-RES > 100 µM | OVCAR-3 > 100 µM | PC-3 > 100 µM | SK-MEL-5 > 100 µM | SN12C > 100 µM | SW-620 > 100 µM | UACC-257 > 100 µM

C/C(=C/C(=O)N(C)c1ccccc1Cl)O[Si](C(C)C)(C(C)C)C(C)C
inactive: ACHN > 10 µM | BT-549 22.5 µM | CAKI-1 40.7 µM | COLO 205 16.8 µM | DU-145 32.1 µM | EKVX 26.4 µM | HT-29 17.6 µM | MDA-MB-231 22.4 µM | MOLT-4 40.4 µM | NCI-H226 15.8 µM | NCI-H522 15.4 µM | NCI/ADR-RES 19.9 µM | OVCAR-3 18.2 µM | SK-MEL-5 16.4 µM | SN12C 17 µM | SW-620 19.4 µM | UACC-257 24.8 µM

Cc1cc(C)c(/C=C(\C(=C/c2c(C)cc(C)cc2C)[N+](=O)[O-])[N+](=O)[O-])c(C)c1
inactive: ACHN > 100 µM | BT-549 > 100 µM | CAKI-1 > 100 µM | COLO 205 > 100 µM | DU-145 > 100 µM | EKVX > 100 µM | HCC 2998 > 100 µM | HT-29 > 100 µM | MDA-MB-231 > 100 µM | MOLT-4 32.7 µM | OVCAR-3 > 100 µM | PC-3 > 100 µM | SK-MEL-5 86.5 µM | SN12C > 100 µM | SW-620 > 100 µM | UACC-257 > 100 µM

Cc1c2ccccc2nc2[nH]c3ccncc3c12
inactive: ACHN 18.7 µM | BT-549 40.6 µM | CAKI-1 25.2 µM | COLO 205 40.4 µM | DU-145 34.5 µM | EKVX 13.9 µM | HT-29 28.2 µM | MDA-MB-231 78.5 µM | MOLT-4 > 100 µM | NCI-H522 36.1 µM | NCI/ADR-RES 23.9 µM | OVCAR-3 30.3 µM | PC-3 38.3 µM | SK-MEL-5 29.4 µM | SN12C 13.1 µM | SW-620 23.9 µM | UACC-257 52.1 µM

N=c1c2ccccc2nc2oc3cc([N+](=O)[O-])ccc3n12
inactive: ACHN 23.7 µM | BT-549 20.2 µM | CAKI-1 25.4 µM | COLO 205 > 100 µM | EKVX 2.21 µM | HCC 2998 > 100 µM | HT-29 > 100 µM | MDA-MB-231 25.1 µM | MOLT-4 > 100 µM | NCI-H226 15 µM | NCI-H522 32.2 µM | NCI/ADR-RES 18.6 µM | OVCAR-3 25.7 µM | PC-3 54.2 µM | SK-MEL-5 71.6 µM | SN12C 35.6 µM | SW-620 61.1 µM | UACC-257 > 100 µM

CCOC(=O)CCC(NC(=O)OCc1ccccc1)C(=O)NC(CCC(=O)OCC)C(=O)NC(CCC(=O)OCC)C(=O)NC(CCC(=O)OCC)C(=O)NC(CCC(=O)OCC)C(=O)NC(CCC(=O)OCC)C(=O)NC(CCC(=O)OCC)C(=O)OCC (stereo not given)
inactive: ACHN > 100 µM | BT-549 > 100 µM | CAKI-1 > 100 µM | DU-145 > 100 µM | HCC 2998 26.1 µM | HT-29 > 100 µM | MDA-MB-231 > 100 µM | MOLT-4 > 100 µM | NCI-H226 > 100 µM | NCI-H522 43.5 µM | OVCAR-3 86.9 µM | PC-3 > 100 µM | SK-MEL-5 > 100 µM | SN12C > 100 µM | SW-620 > 100 µM | UACC-257 > 100 µM

COc1ccc(Oc2nc(C#CC(C)(C)O)nc(Oc3ccc(OC)cc3)n2)cc1
inactive: ACHN 1.69 µM | BT-549 14.9 µM | CAKI-1 3.67 µM | COLO 205 3.59 µM | DU-145 2.62 µM | EKVX 16 µM | HT-29 3.3 µM | MDA-MB-231 2.88 µM | MOLT-4 1.53 µM | NCI-H522 3.2 µM | NCI/ADR-RES 18.9 µM | OVCAR-3 2.1 µM | PC-3 2.52 µM | SK-MEL-5 14.5 µM | SN12C 13.9 µM | SW-620 1.84 µM | UACC-257 17.9 µM

CS(=O)(=O)OCC(CCl)(CCl)CCl
inactive: ACHN > 100 µM | COLO 205 > 100 µM | DU-145 > 100 µM | HCC 2998 > 100 µM | HT-29 > 100 µM | MDA-MB-231 > 100 µM | MOLT-4 > 100 µM | NCI-H226 > 100 µM | NCI-H522 > 100 µM | NCI/ADR-RES > 100 µM | OVCAR-3 > 100 µM | PC-3 > 100 µM | SK-MEL-5 > 100 µM | SN12C > 100 µM | SW-620 > 100 µM | UACC-257 > 100 µM
